Laboratory results from patent publication US9199949B2, “Selective glycosidase inhibitors and uses thereof” (Alectos Therapeutics Inc., priority 2011, dated 2015).

How the values were obtained:
human O-GlcNAcase = human O-GlcNAcase (Homo sapiens (Human), UniProt O60502); assay: Assay for determination of KI values for inhibition of O-GlcNAcase activity (fluorescence-based hOGA); assay type: biochemical; conditions: purified human O-GlcNAcase, 4-Methylumbelliferyl N-acetyl-β-D-glucosaminide substrate, pH 7.0, Cheng-Prusoff
Description: Experimental Procedure for Kinetic Analyses: Enzymatic reactions were carried out in a reaction containing 50 mM NaH2PO4, 100 mM NaCl and 0.1% BSA (pH 7.0) using 2 mM 4-Methylumbelliferyl N-acetyl-β-D-glucosaminide dihydrate (Sigma M2133) dissolved in ddH2O, as a substrate. The amount of purified human O-GlcNAcase enzyme used in the reaction was 0.7 nM. Test compound of varying concentrations was added to the enzyme prior to initiation of the reaction. The reaction was performed at room temperature in a 96-well plate and was initiated with the addition of substrate. […] The slope of product production was determined for each concentration of compound tested and plotted, using standard curve fitting algorithms for sigmoidal dose response curves. The values for a four parameter logistic curve fit of the data were determined.

[1] = Assay for determination of apparent permeability (Papp) in LLC-PK1 cells; assay type: in vitro ADME; conditions: pig, t=3 h, average of A to B and B to A
Description: Bi-directional transport was evaluated in LLC-PK1 cells in order to determine apparent permeability (Papp). LLC-PK1 cells can form a tight monolayer and therefore can be used to assess vectorial transport of compounds from basolateral to apical (B→A) and from apical to basolateral (A→B).
To determine Papp, LLC-PK1 cells were cultured in 96-well transwell culture plates (Millipore). Solutions containing the test compounds (1 μM) were prepared in Hank's Balanced Salt Solution with 10 mM HEPES. Substrate solution (150 μL) was added to either the apical (A) or the basolateral (B) compartment of the culture plate, and buffer (150 μL) was added to the compartment opposite to that containing the compound. At t=3 h, 50 μL samples were removed from both sides of monolayers dosed with test compound and placed in 96 well plates, scintillant (200 μL) or internal standard (100 μL labetolol 1 μM) was added to the samples and concentration was determined by liquid scintillation counting in a MicroBeta Wallac Trilux scintillation counter (Perkin Elmer Life Sciences, Boston, Mass.) or by LCMS/MS (Applied Biosystems SCIEX API 5000 triple quadruple mass spectrometer). [^3H]Verapamil (1 μM) was used as the positive control. The experiment was performed in triplicate.
[formula] Where: Volume of Receptor Chamber was 0.15 mL; Area of membrane was 0.11 cm^2; the Initial Concentration is the sum of the concentration measured in the donor plus concentration measured in receiver compartments at t=3 h; Δ in Concentration is concentration in the receiver compartment at 3 h; and Δ in Time is the incubation time (3×60×60=10800 s). Papp was expressed as 10^−6 cm/s.

O-GlcNAcase = O-GlcNAcase (Rattus norvegicus (Rat), UniProt Q8VIJ5); assay: Cell-based ELISA for cellular activity of O-GlcNAcase inhibitors (O-GlcNAcylated protein, RL-2 antibody); conditions: rat PC-12 cells, 24 h treatment, O-GlcNAcylated protein by RL-2 ELISA
Description: Inhibition of O-GlcNAcase, which removes O-GlcNAc from cellular proteins, results in an increase in the level of O-GlcNAcylated protein in cells. An increase in O-GlcNAcylated protein can be measured by an antibody, such as RL-2, that binds to O-GlcNAcylated protein. The amount of O-GlcNAcylated protein:RL2 antibody interaction can be measured by enzyme linked immunosorbant assay (ELISA) procedures.
Compounds to be tested were dissolved in DMSO, either 2 or 10 mM stock solution, and then diluted with DMSO and water in a two-step process using a Tecan workstation. […] To prepare a cell lysate, the media from compound treated cells was removed, the cells were washed once with phosphate buffered saline (PBS) and then lysed for 5 minutes at room temperature in 50 μL of Phosphosafe reagent (Novagen Inc, Madison, Wis.) with protease inhibitors and PMSF. The cell lysate was collected and transferred to a new plate, which was then either coated to assay plates directly or frozen −80° C. until used in the ELISA procedure. If desired, the total protein concentration of samples was determined using 20 μL of the sample using the BCA method.
The ELISA portion of the assay was performed in a black Maxisorp 96-well plate that was coated overnight at 4° C. with 100 μL/well of the cell lysate (1:10 dilution of the lysate with PBS containing protease inhibitors, phosphatase inhibitors, and PMSF). The following day the wells were washed 3 times with 300 μL/well of Wash buffer (Tris-buffered saline with 0.1% Tween 20).
The amount of O-GlcNAcylated protein, as detected by the ELISA assay, was plotted for each concentration of test compound using standard curve fitting algorithms for sigmoidal dose response curves. The values for a four parameter logistic curve fit of the data were determined, with the inflection point of the curve being the potency value for the test compound.

Sequence of O-GlcNAcase (Q8VIJ5 whole entry): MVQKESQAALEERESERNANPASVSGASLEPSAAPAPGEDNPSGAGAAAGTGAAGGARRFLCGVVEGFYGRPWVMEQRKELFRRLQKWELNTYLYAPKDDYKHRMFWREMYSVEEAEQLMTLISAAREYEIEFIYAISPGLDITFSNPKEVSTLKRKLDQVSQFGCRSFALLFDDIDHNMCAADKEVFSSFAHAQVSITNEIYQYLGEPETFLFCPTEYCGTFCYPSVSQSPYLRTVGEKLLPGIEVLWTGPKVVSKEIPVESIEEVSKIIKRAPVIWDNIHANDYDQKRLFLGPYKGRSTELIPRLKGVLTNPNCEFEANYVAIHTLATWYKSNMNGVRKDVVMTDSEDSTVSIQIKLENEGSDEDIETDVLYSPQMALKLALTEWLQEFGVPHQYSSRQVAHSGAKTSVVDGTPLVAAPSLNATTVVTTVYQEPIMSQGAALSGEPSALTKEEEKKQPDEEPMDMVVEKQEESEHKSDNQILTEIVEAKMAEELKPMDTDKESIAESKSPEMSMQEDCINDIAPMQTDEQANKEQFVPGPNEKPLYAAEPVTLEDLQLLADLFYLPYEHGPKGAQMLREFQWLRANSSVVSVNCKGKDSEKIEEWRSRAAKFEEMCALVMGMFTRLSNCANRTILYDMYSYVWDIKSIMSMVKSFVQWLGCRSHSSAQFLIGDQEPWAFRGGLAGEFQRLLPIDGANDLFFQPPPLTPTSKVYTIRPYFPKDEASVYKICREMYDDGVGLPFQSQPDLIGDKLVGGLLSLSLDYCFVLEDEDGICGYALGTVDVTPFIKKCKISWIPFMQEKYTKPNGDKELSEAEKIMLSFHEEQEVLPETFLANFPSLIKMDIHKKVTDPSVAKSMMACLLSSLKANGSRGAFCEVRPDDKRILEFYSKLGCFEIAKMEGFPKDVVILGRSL
Sequence of human O-GlcNAcase (O60502 whole entry): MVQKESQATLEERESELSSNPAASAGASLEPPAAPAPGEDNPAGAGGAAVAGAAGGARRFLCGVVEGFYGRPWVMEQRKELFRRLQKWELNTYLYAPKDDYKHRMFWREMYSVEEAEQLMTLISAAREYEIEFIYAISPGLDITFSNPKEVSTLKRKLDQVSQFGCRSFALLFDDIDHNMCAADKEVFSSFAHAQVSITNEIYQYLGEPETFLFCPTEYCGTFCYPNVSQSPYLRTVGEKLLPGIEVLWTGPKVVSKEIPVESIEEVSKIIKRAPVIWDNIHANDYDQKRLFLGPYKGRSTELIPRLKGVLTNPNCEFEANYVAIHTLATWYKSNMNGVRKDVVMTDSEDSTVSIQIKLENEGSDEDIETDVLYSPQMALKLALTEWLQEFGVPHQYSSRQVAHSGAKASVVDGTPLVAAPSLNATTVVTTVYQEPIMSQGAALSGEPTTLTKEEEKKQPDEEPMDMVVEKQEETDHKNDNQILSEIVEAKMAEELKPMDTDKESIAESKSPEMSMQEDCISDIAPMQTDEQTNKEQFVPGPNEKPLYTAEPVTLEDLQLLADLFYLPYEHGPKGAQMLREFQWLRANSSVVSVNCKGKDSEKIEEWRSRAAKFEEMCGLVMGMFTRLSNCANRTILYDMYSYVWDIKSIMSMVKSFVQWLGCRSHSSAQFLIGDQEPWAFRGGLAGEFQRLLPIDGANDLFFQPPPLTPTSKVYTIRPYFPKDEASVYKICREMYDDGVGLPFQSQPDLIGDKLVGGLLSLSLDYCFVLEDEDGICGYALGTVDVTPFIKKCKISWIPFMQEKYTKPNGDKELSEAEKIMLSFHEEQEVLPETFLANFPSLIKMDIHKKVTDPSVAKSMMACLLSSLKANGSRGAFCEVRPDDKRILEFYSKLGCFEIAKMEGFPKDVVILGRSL

| SMILES | Ki (human O-GlcNAcase) [nM] | Papp at 3 h, 1 μM [1] [×10⁻⁶ cm/s] | EC50 (O-GlcNAcase) [nM] |
| --- | --- | --- | --- |
| O[C@H]1[C@@H](F)[C@H]2N=C(N3CCC3)O[C@H]2C[C@@H]1C(F)F [Example 15, (3aS,4S,5R,6S,7aS)-2-(azetidin-1-yl)-6-(difluoromethyl)-4-fluoro-3a,4,5,6,7,7a-hexahydrobenzo[d]oxazol-5-ol] | 20.5 | 6.5 | – |
| O[C@H]1[C@H](O)[C@@H](C(F)F)C[C@@H]2OC(N3CCC3)=N[C@H]12 [Example 6, (3aR,4R,5R,6S,7aS)-2-(azetidin-1-yl)-6-(difluoromethyl)-3a,4,5,6,7,7a-hexahydrobenzo[d]oxazole-4,5-diol] | 0.7 | 2.8 | 5.1 |
| CNC1=N[C@@H]2[C@@H](O)[C@H](O)[C@@H](C(F)F)C[C@@H]2O1 [Example 8, (3aR,4R,5R,6S,7aS)-6-(difluoromethyl)-2-(methylamino)-3a,4,5,6,7,7a-hexahydrobenzo[d]oxazole-4,5-diol] | 1.4 | 2.7 | 4.7 |
| CNC1=N[C@@H]2[C@H](F)[C@H](O)[C@@H](CO)C[C@@H]2O1 [Example 12, (3aS,4S,5R,6R,7aS)-4-fluoro-6-(hydroxymethyl)-2-(methylamino)-3a,4,5,6,7,7a-hexahydrobenzo[d]oxazol-5-ol] | 8.6 | 2.2 | – |
| OC[C@H]1C[C@@H]2OC(N3CCC3)=N[C@@H]2[C@H](F)[C@@H]1O [Example 10, (3aS,4S,5R,6R,7aS)-2-(azetidin-1-yl)-4-fluoro-6-(hydroxymethyl)-3a,4,5,6,7,7a-hexahydrobenzo[d]oxazol-5-ol] | 7 | – | – |
| O[C@@H]1[C@@H](CF)C[C@@H]2OC(N3CCC3)=N[C@@H]2[C@H]1O [Example 4, (3aR,4R,5R,6S,7aS)-2-(azetidin-1-yl)-6-(fluoromethyl)-3a,4,5,6,7,7a-hexahydrobenzo[d]oxazole-4,5-diol] | 1.1 | 5.1 | 5.2 |
| CNC1=N[C@@H]2[C@@H](O)[C@H](O)[C@@H](CF)C[C@@H]2O1 [Example 2, (3aR,4R,5R,6S,7aS)-6-(fluoromethyl)-2-(methylamino)-3a,4,5,6,7,7a-hexahydrobenzo[d]oxazole-4,5-diol] | – | 6.5 | – |
